# According to ChEMBL document CHEMBL4177704, “Synthesis and biological evaluation of water-soluble derivatives of chiral gossypol as HIV fusion inhibitors targeting gp41” (Bioorg Med Chem Lett, 2018):
# Calls of active or inactive are those of the source. The calls are words filed in the database; no cut-off is given here.
# Key:
# [1] = system: Human immunodeficiency virus 1; experiment: Antiviral activity against HIV-1 3B infected in human TZM-bl cells treated for 2 hrs followed by compound washout measured after 2 days by luciferase reporter assay; assay type: functional, organism-based
# [2] = system: Human immunodeficiency virus 1; experiment: Antiviral activity against HIV-1 3B infected in human TZM-bl cells at 10 uM treated simultaneously with viral infection for 2 hrs followed by compound washout measured after 2 days by luciferase reporter assay; assay type: functional, organism-based
# [3] = system: Human immunodeficiency virus 1; experiment: Antiviral activity against HIV-1 3B infected in human TZM-bl cells at 10 uM treated 2 to 6 hrs post infection for 2 hrs followed by compound washout measured after 2 days by luciferase reporter assay; assay type: functional, organism-based
# [4] = (§1) Cytotoxicity against human TZM-bl cells after 72 hrs by MTT assay; assay type: cell-based; settings: TZM-bl cells
# [5] = Selectivity index, ratio of CC50 for human TZM-bl cells to IC50 for HIV-1 3B infected in human TZM-bl cells; assay type: toxicity, cell-based; settings: for selectivity ratio: TZM-bl cells, read-out: Ratio CC50/IC50
# TZM = experiment: as §1; assay type: cell-based; settings: tzm, 72 h
# [6] = Human immunodeficiency virus 1, 3B, TZM-bl
Compound,"IC50 [1, 6]",Activity [2],Activity [3],IC50 [1],CC50 at 72 h [4],Ratio CC50/IC50 [5],CC50 (TZM),selectivity ratio [5]
enfuvirtide,0.0905 µM,Active,inactive,–,–,–,–,–
CC[C@H](C)[C@H](N/C=C1\C(=O)C(O)=C(C(C)C)c2cc(C)c(-c3c(C)cc4c(c3O)/C(=C/N[C@H](C(=O)[O-])[C@@H](C)CC)C(=O)C(O)=C4C(C)C)c(O)c21)C(=O)[O-].[Na+].[Na+] (stereo in doubt; (+)-11b),–,–,–,4.22 µM,73.9 µM,17.5,–,–
Cc1cc2c(c(O)c1-c1c(C)cc3c(c1O)/C(=C/NC(C)C(=O)NC(Cc1ccccc1)C(=O)[O-])C(=O)C(O)=C3C(C)C)/C(=C/NC(C)C(=O)NC(Cc1ccccc1)C(=O)[O-])C(=O)C(O)=C2C(C)C.[Na+].[Na+] (stereo in doubt; (-)-5a),–,–,–,1.62 µM,–,20.57,33.3 µM,–
"Cc1cc2c(c(O)c1-c1c(C)cc3c(c1O)/C(=C/NC(C)S(=O)(=O)O)C(=O)C(O)=C3C(C)C)/C(=C/NC(C)S(=O)(=O)O)C(=O)C(O)=C2C(C)C (single isomer, unassigned; (-))",–,Active,inactive,–,–,–,–,–
"Cc1cc2c(c(O)c1-c1c(C)cc3c(c1O)/C(=C/NC(C)C(=O)NCC(=O)O)C(=O)C(O)=C3C(C)C)/C(=C/NC(C)C(=O)NCC(=O)O)C(=O)C(O)=C2C(C)C (single isomer, unassigned; (-))",–,–,–,1.56 µM,–,–,40.3 µM,25.8
Cc1cc2c(c(O)c1-c1c(C)cc3c(c1O)/C(=C/N[C@@H]1[C@@H](O)[C@H](O)[C@@H](CO)O[C@H]1O)C(=O)C(O)=C3C(C)C)/C(=C/N[C@@H]1[C@@H](O)[C@H](O)[C@@H](CO)O[C@H]1O)C(=O)C(O)=C2C(C)C (stereo in doubt; (+)-1b),–,–,–,7.64 µM,32.9 µM,4.3,–,–
"Cc1cc2c(c(O)c1-c1c(C)cc3c(c1O)/C(=C/NC(C)C(=O)NC(C)C(=O)NC(C)C(=O)[O-])C(=O)C(O)=C3C(C)C)/C(=C/NC(C)C(=O)NC(C)C(=O)NC(C)C(=O)[O-])C(=O)C(O)=C2C(C)C.[Na+].[Na+] (single isomer, unassigned; (+))",–,–,–,6.39 µM,58.7 µM,9.19,–,–
Cc1cc2c(c(O)c1-c1c(C)cc3c(c1O)/C(=C/NC(CC(=O)[O-])C(=O)NC(C)C(=O)[O-])C(=O)C(O)=C3C(C)C)/C(=C/NC(CC(=O)[O-])C(=O)NC(C)C(=O)[O-])C(=O)C(O)=C2C(C)C.[Na+].[Na+].[Na+].[Na+] (stereo in doubt; (+)-4b),–,–,–,5.35 µM,51.2 µM,9.56,–,–
"Cc1cc2c(c(O)c1-c1c(C)cc3c(c1O)/C(=C/NC(C)C(=O)NC(C)C(=O)NC(C)C(=O)[O-])C(=O)C(O)=C3C(C)C)/C(=C/NC(C)C(=O)NC(C)C(=O)NC(C)C(=O)[O-])C(=O)C(O)=C2C(C)C.[Na+].[Na+] (single isomer, unassigned; (-))",–,–,–,1.45 µM,–,27.19,39.4 µM,–
Cc1cc2c(c(O)c1-c1c(C)cc3c(c1O)/C(=C/N[C@@H](Cc1c[nH]c4ccccc14)C(=O)[O-])C(=O)C(O)=C3C(C)C)/C(=C/N[C@@H](Cc1c[nH]c3ccccc13)C(=O)[O-])C(=O)C(O)=C2C(C)C.[Na+].[Na+] (stereo in doubt; (+)-12b),–,–,–,9.06 µM,57 µM,6.29,–,–
Cc1cc2c(c(O)c1-c1c(C)cc3c(c1O)/C(=C/N[C@H](C(=O)[O-])C(C)C)C(=O)C(O)=C3C(C)C)/C(=C/N[C@H](C(=O)[O-])C(C)C)C(=O)C(O)=C2C(C)C.[Na+].[Na+] (stereo in doubt; (+)-9b),–,–,–,5.92 µM,63.8 µM,10.78,–,–
Cc1cc2c(c(O)c1-c1c(C)cc3c(c1O)/C(=C/NCC(=O)NCC(=O)NCC(=O)[O-])C(=O)C(O)=C3C(C)C)/C(=C/NCC(=O)NCC(=O)NCC(=O)[O-])C(=O)C(O)=C2C(C)C.[Na+].[Na+] (stereo in doubt; (-)-6a),–,–,–,1.38 µM,–,31.71,43.8 µM,–
Cc1cc2c(c(O)c1-c1c(C)cc3c(c1O)/C(=C/N[C@H](C(=O)[O-])C(C)C)C(=O)C(O)=C3C(C)C)/C(=C/N[C@H](C(=O)[O-])C(C)C)C(=O)C(O)=C2C(C)C.[Na+].[Na+] (stereo in doubt; (-)-9a),–,–,–,0.49 µM,–,101.82,49.9 µM,–
Cc1cc2c(c(O)c1-c1c(C)cc3c(c1O)/C(=C/NCC(=O)NCC(=O)NCC(=O)[O-])C(=O)C(O)=C3C(C)C)/C(=C/NCC(=O)NCC(=O)NCC(=O)[O-])C(=O)C(O)=C2C(C)C.[Na+].[Na+] (stereo in doubt; (+)-6b),–,–,–,6.62 µM,62.4 µM,9.42,–,–
Cc1cc2c(c(O)c1-c1c(C)cc3c(c1O)/C(=C/N[C@@H](CC(C)C)C(=O)[O-])C(=O)C(O)=C3C(C)C)/C(=C/N[C@@H](CC(C)C)C(=O)[O-])C(=O)C(O)=C2C(C)C.[Na+].[Na+] (stereo in doubt; (+)-10b),–,–,–,7.16 µM,60.1 µM,8.4,–,–
Cc1cc2c(c(O)c1-c1c(C)cc3c(c1O)/C(=C/N[C@@H](Cc1c[nH]c4ccccc14)C(=O)[O-])C(=O)C(O)=C3C(C)C)/C(=C/N[C@@H](Cc1c[nH]c3ccccc13)C(=O)[O-])C(=O)C(O)=C2C(C)C.[Na+].[Na+] (stereo in doubt; (-)-12a),–,–,–,1.08 µM,–,44.66,48.2 µM,–
Cc1cc2c(c(O)c1-c1c(C)cc3c(c1O)/C(=C/N[C@@H](C)C(=O)[O-])C(=O)C(O)=C3C(C)C)/C(=C/N[C@@H](C)C(=O)[O-])C(=O)C(O)=C2C(C)C.[Na+].[Na+] (stereo in doubt; (+)-8b),–,–,–,4.13 µM,72.6 µM,17.59,–,–
Cc1cc2c(c(O)c1-c1c(C)cc3c(c1O)/C(=C/N[C@@H](CC(C)C)C(=O)[O-])C(=O)C(O)=C3C(C)C)/C(=C/N[C@@H](CC(C)C)C(=O)[O-])C(=O)C(O)=C2C(C)C.[Na+].[Na+] (stereo in doubt; (-)-10a),–,–,–,0.68 µM,–,78.41,53.3 µM,–
Cc1cc2c(c(O)c1-c1c(C)cc3c(c1O)/C(=C/NC(C)C(=O)NC(C)C(=O)[O-])C(=O)C(O)=C3C(C)C)/C(=C/NC(C)C(=O)NC(C)C(=O)[O-])C(=O)C(O)=C2C(C)C.[Na+].[Na+] (stereo in doubt; (+)-3b),–,–,–,5.82 µM,59.5 µM,10.22,–,–
Cc1cc2c(c(O)c1-c1c(C)cc3c(c1O)/C(=C/N[C@@H]1[C@@H](O)[C@H](O)[C@@H](CO)O[C@H]1O)C(=O)C(O)=C3C(C)C)/C(=C/N[C@@H]1[C@@H](O)[C@H](O)[C@@H](CO)O[C@H]1O)C(=O)C(O)=C2C(C)C (stereo in doubt; (-)-1a),–,Active,inactive,–,–,–,–,–
"Cc1cc2c(c(O)c1-c1c(C)cc3c(c1O)/C(=C/NC(C)S(=O)(=O)[O-])C(=O)C(O)=C3C(C)C)/C(=C/NC(C)S(=O)(=O)[O-])C(=O)C(O)=C2C(C)C.[Na+].[Na+] (single isomer, unassigned; (+))",1.97 µM,–,–,–,54.8 µM,27.81,–,–
Cc1cc2c(c(O)c1-c1c(C)cc3c(c1O)/C(=C/N[C@@H](C)C(=O)[O-])C(=O)C(O)=C3C(C)C)/C(=C/N[C@@H](C)C(=O)[O-])C(=O)C(O)=C2C(C)C.[Na+].[Na+] (stereo in doubt; (-)-8a),–,–,–,0.35 µM,–,183.29,64.2 µM,–
"Cc1cc2c(c(O)c1-c1c(C)cc3c(c1O)/C(=C/NC(C)C(=O)NCC(=O)[O-])C(=O)C(O)=C3C(C)C)/C(=C/NC(C)C(=O)NCC(=O)[O-])C(=O)C(O)=C2C(C)C.[Na+].[Na+] (single isomer, unassigned; (+))",–,–,–,4.28 µM,61.1 µM,14.28,–,–
Cc1cc2c(c(O)c1-c1c(C)cc3c(c1O)/C(=C/N[C@@H](Cc1ccccc1)C(=O)O)C(=O)C(O)=C3C(C)C)/C(=C/N[C@@H](Cc1ccccc1)C(=O)O)C(=O)C(O)=C2C(C)C (stereo in doubt; (-)-13a),–,–,–,6.99 µM,–,–,37.7 µM,5.39
Cc1cn([C@H]2C[C@H](N=[N+]=[N-])[C@@H](CO)O2)c(=O)[nH]c1=O [ZIDOVUDINE],0.0028 µM,Active,inactive,–,–,–,–,–
Cc1cc2c(c(O)c1-c1c(C)cc3c(c1O)/C(=C/NC(C)C(=O)NC(Cc1ccccc1)C(=O)[O-])C(=O)C(O)=C3C(C)C)/C(=C/NC(C)C(=O)NC(Cc1ccccc1)C(=O)[O-])C(=O)C(O)=C2C(C)C.[Na+].[Na+] (stereo in doubt; (+)-5b),–,–,–,6.32 µM,50.3 µM,7.97,–,–
Cc1cc2c(c(O)c1-c1c(C)cc3c(c1O)/C(=C/N[C@@H](Cc1ccccc1)C(=O)[O-])C(=O)C(O)=C3C(C)C)/C(=C/N[C@@H](Cc1ccccc1)C(=O)[O-])C(=O)C(O)=C2C(C)C.[Na+].[Na+] (stereo in doubt; (+)-13b),8.21 µM,–,–,–,53.8 µM,6.55,–,–
"Cc1cc2c(c(O)c1-c1c(C)cc3c(c1O)/C(=C/NC(C)C(=O)NC(C)C(=O)O)C(=O)C(O)=C3C(C)C)/C(=C/NC(C)C(=O)NC(C)C(=O)O)C(=O)C(O)=C2C(C)C (single isomer, unassigned; (-))",–,Active,inactive,–,–,–,–,–
"Cc1cc2c(c(O)c1-c1c(C)cc3c(c1O)/C(=C/NC(CC(=O)[O-])C(=O)NC(C)C(=O)[O-])C(=O)C(O)=C3C(C)C)/C(=C/NC(CC(=O)[O-])C(=O)NC(C)C(=O)[O-])C(=O)C(O)=C2C(C)C.[Na+].[Na+].[Na+].[Na+] (single isomer, unassigned; (-))",–,–,–,1.25 µM,–,34.1,42.6 µM,–
CC[C@H](C)[C@H](N/C=C1\C(=O)C(O)=C(C(C)C)c2cc(C)c(-c3c(C)cc4c(c3O)/C(=C/N[C@H](C(=O)[O-])[C@@H](C)CC)C(=O)C(O)=C4C(C)C)c(O)c21)C(=O)[O-].[Na+].[Na+] (stereo in doubt; (-)-11a),–,–,–,0.47 µM,–,132.29,62.2 µM,–
